Measured values published in the supplement of paper PMC10307832.

Assays:
Assay in all cases: relative viability (nuclei count vs DMSO), 5 days (fraction); higher = more cells survive
NCI-H2023 = system: NCI-H2023
Summary of the method: (§1)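 Each reported value is a median over duplicate plates. It expresses relative viability: treated-well nuclei count divided by vehicle-well nuclei count. Lung cancer cell lines in 1536-well plates were dosed by pin tool a day after seeding, alone with one drug or with a fixed anchor-drug dose plus five library-drug doses (not always all listed) in √10 steps, and nuclei were counted after 5 days.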

HARA = system: HARA
Summary of the method: as §1

NCI-H650 = system: NCI-H650
Summary of the method: as §1

H3255 = system: H3255
Summary of the method: as §1

LOU-NH91 = system: LOU-NH91
Summary of the method: as §1

NCI-H1650 = system: NCI-H1650
Summary of the method: as §1

NCI-H441 = system: NCI-H441
Summary of the method: as §1

NCI-H838 = system: NCI-H838
Summary of the method: as §1

NCI-H2087 = system: NCI-H2087
Summary of the method: as §1

NCI-H1651 = system: NCI-H1651
Summary of the method: as §1

EPLC-272H = system: EPLC-272H
Summary of the method: as §1

SW 1573 = system: SW 1573
Summary of the method: as §1

NCI-H1975 = system: NCI-H1975
Summary of the method: as §1

NCI-H2085 = system: NCI-H2085
Summary of the method: as §1

NCI-H727 = system: NCI-H727
Summary of the method: as §1

LC-2-ad = system: LC-2-ad
Summary of the method: as §1

NCI-H2228 = system: NCI-H2228
Summary of the method: as §1

NCI-H2170 = system: NCI-H2170
Summary of the method: as §1

UMC-11 = system: UMC-11
Summary of the method: as §1

PC-3 [JPC-3] = system: PC-3 [JPC-3]
Summary of the method: as §1

NCI-H23 = system: NCI-H23
Summary of the method: as §1

Question: What does the source list for `Cc1cn(-c2cc(NC(=O)c3ccc(C)c(Nc4nccc(-c5cccnc5)n4)c3)cc(C(F)(F)F)c2)cn1` [Nilotinib] + C[C@@H](Oc1cc(-c2cnn(C3CCNCC3)c2)cnc1N)c1c(Cl)ccc(F)c1Cl [Crizotinib] (partner 1 µM)?
Answer: relative viability (NCI-H2023; first compound 0.001 µM): 0.659; relative viability (NCI-H2023; first compound 0.003162 µM): 0.683; relative viability (NCI-H2023; first compound 0.01 µM): 0.852; relative viability (NCI-H2023; first compound 0.03162 µM): 0.506; relative viability (NCI-H2023; first compound 0.1 µM): 0.569; relative viability (HARA; first compound 0.001 µM): 1.09; relative viability (HARA; first compound 0.003162 µM): 1.42; relative viability (HARA; first compound 0.01 µM): 1.61; relative viability (HARA; first compound 0.03162 µM): 0.886; relative viability (HARA; first compound 0.1 µM): 1.05; relative viability (NCI-H650; first compound 0.001 µM): 0.637; relative viability (NCI-H650; first compound 0.003162 µM): 0.551; relative viability (NCI-H650; first compound 0.01 µM): 0.844; relative viability (NCI-H650; first compound 0.03162 µM): 0.601; relative viability (NCI-H650; first compound 0.1 µM): 0.715; relative viability (H3255; first compound 0.001 µM): 0.773; relative viability (H3255; first compound 0.003162 µM): 0.99; relative viability (H3255; first compound 0.01 µM): 1.07; relative viability (H3255; first compound 0.03162 µM): 0.814; relative viability (H3255; first compound 0.1 µM): 1.11; relative viability (LOU-NH91; first compound 0.001 µM): 0.763; relative viability (LOU-NH91; first compound 0.003162 µM): 0.722; relative viability (LOU-NH91; first compound 0.01 µM): 0.76; relative viability (LOU-NH91; first compound 0.03162 µM): 0.722; relative viability (LOU-NH91; first compound 0.1 µM): 0.768; relative viability (NCI-H1650; first compound 0.001 µM): 1.07; relative viability (NCI-H1650; first compound 0.003162 µM): 1.1; relative viability (NCI-H1650; first compound 0.01 µM): 0.998; relative viability (NCI-H1650; first compound 0.03162 µM): 0.777; relative viability (NCI-H1650; first compound 0.1 µM): 0.87; relative viability (NCI-H441; first compound 0.001 µM): 0.728; relative viability (NCI-H441; first compound 0.003162 µM): 0.825; relative viability (NCI-H441; first compound 0.01 µM): 0.601; relative viability (NCI-H441; first compound 0.1 µM): 0.652; relative viability (NCI-H838; first compound 0.001 µM): 0.896; relative viability (NCI-H838; first compound 0.003162 µM): 0.81; relative viability (NCI-H838; first compound 0.01 µM): 1.03; relative viability (NCI-H838; first compound 0.03162 µM): 0.673; relative viability (NCI-H838; first compound 0.1 µM): 0.926; relative viability (NCI-H2087; first compound 0.001 µM): 0.626; relative viability (NCI-H2087; first compound 0.003162 µM): 0.806; relative viability (NCI-H2087; first compound 0.01 µM): 0.947; relative viability (NCI-H2087; first compound 0.03162 µM): 0.702; relative viability (NCI-H2087; first compound 0.1 µM): 0.667; relative viability (NCI-H1651; first compound 0.001 µM): 0.853; relative viability (NCI-H1651; first compound 0.003162 µM): 0.986; relative viability (NCI-H1651; first compound 0.01 µM): 1; relative viability (NCI-H1651; first compound 0.03162 µM): 0.838; relative viability (NCI-H1651; first compound 0.1 µM): 0.816; relative viability (EPLC-272H; first compound 0.001 µM): 0.942; relative viability (EPLC-272H; first compound 0.003162 µM): 0.935; relative viability (EPLC-272H; first compound 0.01 µM): 1.01; relative viability (EPLC-272H; first compound 0.03162 µM): 0.831; relative viability (EPLC-272H; first compound 0.1 µM): 0.917; relative viability (SW 1573; first compound 0.001 µM): 0.798; relative viability (SW 1573; first compound 0.003162 µM): 0.882; relative viability (SW 1573; first compound 0.01 µM): 0.946; relative viability (SW 1573; first compound 0.03162 µM): 0.826; relative viability (SW 1573; first compound 0.1 µM): 0.823; relative viability (NCI-H1975; first compound 0.001 µM): 0.811; relative viability (NCI-H1975; first compound 0.003162 µM): 1.11; relative viability (NCI-H1975; first compound 0.01 µM): 1.16; relative viability (NCI-H1975; first compound 0.03162 µM): 0.616; relative viability (NCI-H1975; first compound 0.1 µM): 0.907; relative viability (NCI-H2085; first compound 0.001 µM): 0.982; relative viability (NCI-H2085; first compound 0.003162 µM): 0.895; relative viability (NCI-H2085; first compound 0.01 µM): 0.971; relative viability (NCI-H2085; first compound 0.03162 µM): 0.721; relative viability (NCI-H2085; first compound 0.1 µM): 0.884; relative viability (NCI-H727; first compound 0.001 µM): 0.865; relative viability (NCI-H727; first compound 0.01 µM): 1.05; relative viability (NCI-H727; first compound 0.03162 µM): 0.575; relative viability (NCI-H727; first compound 0.1 µM): 0.483; relative viability (LC-2-ad; first compound 0.001 µM): 0.43; relative viability (LC-2-ad; first compound 0.003162 µM): 0.436; relative viability (LC-2-ad; first compound 0.01 µM): 0.449; relative viability (LC-2-ad; first compound 0.03162 µM): 0.42; relative viability (LC-2-ad; first compound 0.1 µM): 0.522; relative viability (NCI-H2228; first compound 0.001 µM): 0.53; relative viability (NCI-H2228; first compound 0.003162 µM): 0.418; relative viability (NCI-H2228; first compound 0.01 µM): 0.606; relative viability (NCI-H2228; first compound 0.03162 µM): 0.461; relative viability (NCI-H2228; first compound 0.1 µM): 0.294; relative viability (NCI-H2170; first compound 0.001 µM): 1.12; relative viability (NCI-H2170; first compound 0.003162 µM): 1.21; relative viability (NCI-H2170; first compound 0.01 µM): 1.61; relative viability (NCI-H2170; first compound 0.03162 µM): 0.915; relative viability (NCI-H2170; first compound 0.1 µM): 1.19; relative viability (UMC-11; first compound 0.001 µM): 0.561; relative viability (UMC-11; first compound 0.003162 µM): 0.525; relative viability (UMC-11; first compound 0.01 µM): 0.585; relative viability (UMC-11; first compound 0.1 µM): 0.68; relative viability (PC-3 [JPC-3]; first compound 0.001 µM): 0.987; relative viability (PC-3 [JPC-3]; first compound 0.003162 µM): 1.23; relative viability (PC-3 [JPC-3]; first compound 0.01 µM): 1.06; relative viability (PC-3 [JPC-3]; first compound 0.03162 µM): 0.882; relative viability (PC-3 [JPC-3]; first compound 0.1 µM): 0.88; relative viability (NCI-H23; first compound 0.001 µM): 0.471; relative viability (NCI-H23; first compound 0.003162 µM): 0.442; relative viability (NCI-H23; first compound 0.01 µM): 0.6; relative viability (NCI-H23; first compound 0.03162 µM): 0.328; relative viability (NCI-H23; first compound 0.1 µM): 0.378
